Tests used:
Assay in all cases: Real-time PCR of vaginal bacterial communities
Assay type in all cases: in vivo
[1] = tested on: Atopobium
Procedure: (§1) The qPCR real-time quantitative PCR was used for the identification and quantification of bacterial groups involved in the imbalance that effects the vaginal microbiota, in particular to determine the concentrations of the principal bacterial groups which are known to be affected in the presence of BV such as Lactobacillus, Atopobium, Gardnerella vaginalis, Prevotella, Veillonella, Mobiluncus and Mycoplasma hominis.
(§2) qPCR was performed on DNA samples extracted from CVF of healthy women (H), women affected by BV at V1 (BV), women who were in remission after rifaximin treatment at V3 (R), and women who were not in remission after antibiotic or placebo treatment at V3 (N).
(§3) A total of 80 Belgian pre-menopausal, non-pregnant women, aged between 18 and 50 years were included in the present study. At the screening visit (V1) diagnosis of health or BV was made using both Amsel's criteria and Gram stain Nugent scoring. Patients with Nugent score >3 and positive for at least 3 of 4 Amsel's criteria were considered positive for BV. According to this clinical evaluation, women were split into 2 groups: healthy subjects (H), who had no signs of vaginal tract infection (n=41) and patients affected by BV (n=39).
(§4) Patients who were diagnosed for BV at the study visit V1 were included in a multicentre, double-blind, randomised, placebo-controlled study (EudraCT: 2009-011826-32), that was performed to compare the efficacy of different doses of rifaximin vaginal tablets versus placebo for the treatment of BV. The patients underwent a randomization visit and were distributed into 4 treatment groups: group A received 100 mg rifaximin vaginal tablet once daily for 5 days (n=10), group B received 25 mg rifaximin vaginal tablet once daily for 5 days (n=10), group C received 100 mg rifaximin vaginal tablet once daily for the first 2 days and placebo vaginal tablet for the remaining 3 days (n=9), group D received placebo vaginal tablet once daily for 5 days (n=10). Study medication was administered intra-vaginally at bedtime. After 7 to 10 days from the end of the therapy a follow-up visit (V3) was performed. Remission was evaluated at V3 according to Amsel's criteria (<3) and Gram stain Nugent score (≦3) (Table 1).
(§5) Standardized vaginal rinsings with 2 mL of saline were collected for analysis at V1 and V3 by flushing and re-aspirating the fluid through a 22 Gauge needle in the left, central and right upper vaginal vaults. The vaginal rinsings were subsequently stored at −80° C. until use.
(§6) One mL of each vaginal rinsing was centrifuged at 9500 g for 15 min to separate the pellet, which was processed for bacterial DNA isolation, from the supernatant, used for protein extraction.
(§7) DNA amount was quantified using NanoDrop ND-1000 (NanoDrop® Technologies, Wilmington, Del.).
(§8) Real-time PCR was performed on DNA samples extracted from cervicovaginal fluid (CVF) collected from 41 healthy women (H) and 39 BV-affected women before (BV) and after rifaximin/placebo treatment R (11 women in remission) and N (28 women not in remission).
(§9) Specific primer sets targeted to 16S rRNA gene or 16S-23S rRNA spacer region were used to quantify the following genus or species: Lactobacillus, Gardnerella vaginalis, Atopobium, Prevotella, Veillonella, Mycoplasma hominis and Mobiluncus.

[2] = tested on: Gardnerella vaginalis
Procedure: as §1, §2, §3, §4, §5, §6, §7, §8, §9

[3] = tested on: Lactobacillus
Procedure: as §1, §2, §3, §4, §5, §6, §7, §8, §9

[4] = tested on: Mobiluncus
Procedure: as §1, §2, §3, §4, §5, §6, §7, §8, §9

[5] = tested on: Mycoplasma hominis
Procedure: as §1, §2, §3, §4, §5, §6, §7, §8, §9

[6] = tested on: Prevotella
Procedure: as §1, §2, §3, §4, §5, §6, §7, §8, §9

[7] = tested on: Veillonella
Procedure: as §1, §2, §3, §4, §5, §6, §7, §8, §9

[8] = R group: women in remission after rifaximin treatment at V3
[9] = R group: women in remission after rifaximin treatment at V3, qPCR

CO[C@H]1/C=C/O[C@@]2(C)Oc3c(C)c(O)c4c(O)c(c5c(nc6cc(C)ccn65)c4c3C2=O)NC(=O)/C(C)=C\C=C\[C@H](C)[C@H](O)[C@@H](C)[C@@H](O)[C@@H](C)[C@H](OC(C)=O)[C@@H]1C [rifaximin]
Atopobium concentration in R group compared to BV group ([1]; R group at V3 vs BV group, still higher than H group): significantly lower | Target DNA/genomic vaginal DNA (median), Atopobium [1, 8]: 4.86 ng/µg | % of women hosting Atopobium [1, 9]: 100% | G. vaginalis concentration in R group ([2]; R group at V3): very low concentrations | Target DNA/genomic vaginal DNA (median), G. vaginalis [2, 8]: 0.0 ng/µg | % of women hosting Gardnerella vaginalis [2, 9]: 45.5% | median value of Lactobacilli in R group relative to BV group ([3]; R group after antibiotic treatment vs BV group, higher): about 10 times | Target DNA/genomic vaginal DNA (median), Lactobacillus [3, 8]: 46.3 ng/µg | % of women hosting Lactobacillus [3, 9]: 100% | Mobiluncus quantification in R group ([4]; R group at V3): not quantified in any of the women | Target DNA/genomic vaginal DNA (median), Mobiluncus [4, 8]: 0.0 ng/µg | % of women hosting Mobiluncus [4, 9]: 0.0% | M. hominis in R group compared to BV group ([5]; R group at V3 vs BV group): significant reduction | Target DNA/genomic vaginal DNA (median), Mycoplasma hominis [5, 8]: 0.00156 ng/µg | % of women hosting Mycoplasma hominis [5, 9]: 63.6% | Prevotella concentration in R group ([6]; R group at V3): very low concentrations | Target DNA/genomic vaginal DNA (median), Prevotella [6, 8]: 0.0451 ng/µg | % of women hosting Prevotella [6, 9]: 81.8% | Veillonella quantification in R group ([7]; R group at V3): not quantified in any of the women | Target DNA/genomic vaginal DNA (median), Veillonella [7, 8]: 0.0 ng/µg | % of women hosting Veillonella [7, 9]: 0.0%
